Test results as given in patent US7014858B2, “Use methods of treating acne and telangiectasia” (CollaGenex Pharmaceuticals, Inc., priority 2001, dated 2006).
Structures can show the parent of a compound that is named as a salt.

What was measured:
[1] = cited from earlier work
[2] = Plasma antibiotic threshold levels based on steady-state pharmacokinetics
[3] = system: acne; settings: sub-antibiotic doses; cited from earlier work
[4] = system: neutrophil chemotaxis induced by bacterial chemotactic factors; settings: oral, total daily dose 1000 mg; cited from earlier work
[5] = system: moderate facial acne; experiment: Clinical study of doxycycline hyclate 20 mg tablets twice daily in moderate acne: lesion counts; assay type: in vivo, human; settings: 20 mg tablets twice a day
Description: Effects of Doxycycline Hyclate 20 mg (Dermastat) Tablets Administered Twice Daily for the Treatment of Moderate Acne
• Multi-center, randomized double-blind, placebo-controlled; • Sixty patients enrolled (30 doxycycline and 30 placebo); • Six month duration of the study. • Patients received medication twice daily, approximately 12 hours apart (placebo and drug are identical in appearance.) Inclusion Criteria: • Healthy post-pubescent males and females (age ≧18) with moderate facial acne: • Comedones 6 to 200; • Inflammatory lesions 10 to 75 (papules and pustules, less than or equal to 5 nodules); • Females tested negative for pregnancy and were non-lactating; • Females maintained appropriate birth control; • Patients signed an Informed Consent Form; • No Accutane treatment for 6 months prior to baseline. Exclusion Criteria: • Use of hormonal contraception 6 months prior to baseline or during study; • Use of topical acne treatments within 6 weeks of baseline or during study; • Use of systemic antibiotics within 6 weeks of baseline or during study; • Use of investigational drugs within 90 days of baseline; • Use of any acne treatments during study. […]

CN(C)[C@@H]1C(O)=C(C(N)=O)C(=O)[C@@]2(O)C(O)=C3C(=O)c4c(O)cccc4[C@@](C)(O)[C@H]3C[C@@H]12 [tetracycline HCl]
peak plasma concentration ([1]; 250 mg every six hours over a twenty-four hour period): approximately 3 μg/ml | serum concentration level ([1]; 500 mg every six hours over a twenty-four hour period): 4 to 5 µg/mL

CN(C)c1ccc(O)c2c1C[C@H]1C[C@H]3[C@H](N(C)C)C(O)=C(C(N)=O)C(=O)[C@@]3(O)C(O)=C1C2=O [minocycline HCl]
minocycline serum levels (range) ([1]; single dose of two 100 mg tablets, adult humans, over a period of an hour): 0.74 to 4.45 µg/mL | minocycline serum level (average) ([1]; single dose of two 100 mg tablets, adult humans): 2.24 µg/mL

CN(C)[C@@H]1C(O)=C(C(N)=O)C(=O)[C@@]2(O)C(O)=C3C(=O)c4c(O)cccc4[C@@](C)(O)[C@H]3C[C@@H]12 [tetracycline]
plasma antibiotic threshold level [2]: 0.5 µg/mL | clinical effect on acne [3]: no clinical effect | neutrophil chemotaxis [4]: inhibition

CCO.C[C@H]1c2cccc(O)c2C(O)=C2C(=O)[C@]3(O)C(O)=C(C(N)=O)C(=O)[C@@H](N(C)C)[C@@H]3[C@@H](O)[C@@H]21.C[C@H]1c2cccc(O)c2C(O)=C2C(=O)[C@]3(O)C(O)=C(C(N)=O)C(=O)[C@@H](N(C)C)[C@@H]3[C@@H](O)[C@@H]21.Cl.Cl.O [doxycycline hyclate]
reduction in the number of comedones (in words) [5]: significant reduction
